Holding throughout (assay type): functional
Assay [1] is described as follows: Antiplatelet activity in human whole blood assessed as inhibition of ristocetin-induced platelet aggregation at 100 ug/mL relative to control.
Assay [2] in a line: Antiplatelet activity in human whole blood assessed as inhibition of ADP-induced platelet aggregation at 100 ug/mL relative to control.
The nature of assay [3]: Antiplatelet activity in human whole blood assessed as inhibition of collagen-induced platelet aggregation at 100 ug/mL relative to control.
A short description of assay [4]: Antiplatelet activity in human whole blood assessed as inhibition of arachidonic acid-induced platelet aggregation at 100 ug/mL relative to control.

For the compound `COc1cc(O)cc2c1C(=O)CC(c1ccc(O)cc1)O2` (stereo unspecified), the inhibition at 100 µg/mL in assay [1] was 37.2%; in assay [2] it was 14.5%; in assay [3], 57.7%; in assay [4] it was 26.2%.
For `COc1ccc2c(c1)c(CC(=O)O)c(C)n2C(=O)c1ccc(Cl)cc1` [INDOMETHACIN], in that order: 52.1%, 36.7%, 71.1% and 100%.
As to `COc1cc(O)cc(O)c1C(=O)/C=C/c1ccc(O)cc1` [HELICHRYSETIN], the inhibition at 100 µg/mL in assay [1] is 63.8%; in assay [2], 48.9%; in assay [3], 32.3%; in assay [4], 100%.
On the same counts, the results for `O=Cc1ccc(O)cc1` [4-HYDROXYBENZALDEHYDE] are 11%, 39.8%, 23.6% and 5.4%.
On the same counts, the results for `O=C(/C=C(O)/C=C/c1ccc(O)cc1)CCc1ccc(O)cc1` are 62.8%, 100%, 77.3% and 100%.
For `COc1cc(O)cc(O)c1C(=O)/C=C/c1ccccc1` [CARDAMOMIN], in that order: 0%, 62.9%, 56% and 100%.
As for `O=C(/C=C/c1ccc(O)cc1)CC(=O)/C=C/c1ccc(O)cc1` [BISDEMETHOXYCURCUMIN], the inhibition at 100 µg/mL was 38.3% in assay [1], 35.4% in assay [2], 76.3% in assay [3] and 46.8% in assay [4].
For `COc1cc(/C=C/c2ccccc2)oc(=O)c1` [DESMETHOXYYANGONIN], in that order: 33.3%, 43.8%, 48.9% and 100%.
On the same counts, the results for `COc1cc(/C=C/c2ccc(O)cc2)oc(=O)c1` are 100%, 100%, 86.9% and 100%.

Source of the values: ChEMBL document CHEMBL1159199, “A new antiplatelet diarylheptanoid from Alpinia blepharocalyx” (1998).
